The text below walks through data of patent publication US7226923B2, “Phthalazinone derivatives” (Hoffman-La Roche Inc., priority 2004, dated 2007).

Each structure is given as a SMILES string.

For orientation: IC50 means the concentration at which inhibition is half-maximal.

This assay has as its target T1, Aurora A (Homo sapiens, UniProt O14965).
T1 construct: C-terminally Histidine4 (His4)-tagged Aurora A full-length protein
T1 sequence (O14965 1-403): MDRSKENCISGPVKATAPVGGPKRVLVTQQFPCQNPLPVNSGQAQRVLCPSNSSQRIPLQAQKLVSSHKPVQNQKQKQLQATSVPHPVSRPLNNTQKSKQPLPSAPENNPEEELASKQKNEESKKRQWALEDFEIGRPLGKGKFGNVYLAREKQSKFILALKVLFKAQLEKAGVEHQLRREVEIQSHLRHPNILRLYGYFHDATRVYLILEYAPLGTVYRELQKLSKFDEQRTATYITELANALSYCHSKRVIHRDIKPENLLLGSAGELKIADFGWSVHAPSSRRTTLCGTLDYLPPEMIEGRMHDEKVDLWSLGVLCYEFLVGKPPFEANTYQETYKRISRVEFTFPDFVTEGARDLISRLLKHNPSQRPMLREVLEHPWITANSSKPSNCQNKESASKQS
The assay can be described thus: IC50 determination for inhibitors of Aurora A (96 MTP-ELISA). The class given is biochemical. The settings on record: His4-tagged full-length Aurora A 250 ng/ml, PKB-GSK2 200 nM, ATP 4 μM, 90 min at room temperature, read-out: IC50 Aurora A kinase inhibition. The protocol:
IC50 Determination for Inhibitors of Aurora A
• Aurora A is a serine threonine kinase involved in spindle assembly and chromosome segregation.
The assay is a typically ELISA-type assay where biotinylated substrate (PKB-GSK2) is phosphorylated. Phosphorylation is detected by peroxidase (POD) labelled polyclonal antibody (PAK<M-Ig>S-IgG-POD) and phosphopeptide monoclonal antibody (Mab) (MAK<P-GSK>M-27E5-IgG). The assay is validated for IC50-determination.
Method • This assay is performed in 96-well format for IC50 determination with 5 samples (each with 8 concentrations by twofold testing), 100 μl incubation volume and the following plate layout: […]
As for `Cc1cc(Nc2nn(-c3ccc(C(F)(F)F)cc3Cl)c(=O)c3ccccc23)n[nH]1` [Example W-1, 2-(2-Chloro-4-trifluoromethyl-phenyl)-4-(5-methyl-1H-pyrazol-3-ylamino)-2H-phthalazin-1-one], the IC50 lay in the range of 100 to 1000 nM.
For the compound `Cc1cc(Nc2nn(-c3ccc(NS(C)(=O)=O)cc3)c(=O)c3ccccc23)n[nH]1` [Example T-5, N-{4-[4-(5-Methyl-1H-pyrazol-3-ylamino)-1-oxo-1H-phthalazin-2-yl]-phenyl}-methanesulfonamide], the IC50 fell in the range of 1 to 100 nM.
Next, `Cc1cc(Nc2nn(C(C)C)c(=O)c3cc(N(C)Cc4ccncc4)ccc23)n[nH]1` [Example I-2, 2-Isopropyl-4-(5-methyl-1H-pyrazol-3-ylamino)-7-(methyl-pyridin-4-ylmethyl-amino)-2H-phthalazin-1-one]: 1 to 100 nM; `CNc1ccc2c(Nc3cc(C)[nH]n3)nn(C(C)C)c(=O)c2c1` [Example I-12, 2-Isopropyl-7-methylamino-4-(5-methyl-1H-pyrazol-3-ylamino)-2H-phthalazin-1-one]: 1 to 100 nM.
Turning to `Cc1cc(Nc2nn(C(C)C)c(=O)c3cc(CN4CCN(C)CC4)ccc23)n[nH]1` [Example L-1, 2-Isopropyl-7-(4-methyl-piperazin-1-ylmethyl)-4-(5-methyl-1H-pyrazol-3-ylamino)-2H-phthalazin-1-one], the IC50 is 1 to 100 nM.
For `COCC(C)n1nc(Nc2cc(C)n[nH]2)c2ccccc2c1=O` (centres unmarked) [Example O-2, 2-(2-Methoxy-1-methyl-ethyl)-4-(5-methyl-2H-pyrazol-3-ylamino)-2H-phthalazin-1-one], the half-maximal inhibitory concentration (IC50) fell in the range of 100 to 1000 nM.
In the case of `COc1ccc2c(Nc3cc(C)[nH]n3)nn(Cc3ccccc3)c(=O)c2c1` [Example G-8, 2-Benzyl-7-methoxy-4-(5-methyl-1H-pyrazol-3-ylamino)-2H-phthalazin-1-one], the IC50 was 1 to 100 nM.
Consider `COc1ccc(-n2nc(Nc3cc(C)[nH]n3)c3ccccc3c2=O)cc1` [Example A-9, 2-(4-Methoxy-phenyl)-4-(5-methyl-1H-pyrazol-3-ylamino)-2H-phthalazin-1-one], for which the IC50 was in the range of 1 to 100 nM.
The same measure for `Cc1cc(Nc2nn(Cc3cccnc3)c(=O)c3ccccc23)[nH]n1` [Example A-18, 4-(5-Methyl-2H-pyrazol-3-ylamino)-2-pyridin-3-ylmethyl-2H-phthalazin-1-one]: 1 to 100 nM.
With `COc1ccc(C(=O)Cn2nc(Nc3cc(C)[nH]n3)c3ccccc3c2=O)cc1` [Example E-4, 2-[2-(4-Methoxy-phenyl)-2-oxo-ethyl]-4-(5-methyl-1H-pyrazol-3-ylamino)-2H-phthalazin-1-one], the IC50 was 1 to 100 nM.
The same measure for `Cc1cc(Nc2nn(-c3cccc(C(C)(C)C)c3)c(=O)c3ccccc23)n[nH]1` [Example X-2, 2-(3-tert-Butyl-phenyl)-4-(5-methyl-1H-pyrazol-3-ylamino)-2H-phthalazin-1-one]: 1 to 100 nM; for `CC(=O)Nc1ccc(Cn2nc(Nc3cc[nH]n3)c3ccccc3c2=O)cc1` [Example D-2, N-{4-[1-Oxo-4-(1H-pyrazol-3-ylamino)-1H-phthalazin-2-ylmethyl]-phenyl}-acetamide]: 555 nM.
As to `CCOC(=O)Nc1ccc(-n2nc(Nc3cc(C)[nH]n3)c3ccccc3c2=O)cc1` [Example Y-2, {4-[4-(5-Methyl-1H-pyrazol-3-ylamino)-1-oxo-1H-phthalazin-2-yl]-phenyl}-carbamic acid ethyl ester], the IC50 was 1 to 100 nM.
Next, `CONC(=O)c1ccc2c(Nc3cc(C)[nH]n3)nn(C(C)C)c(=O)c2c1` [Example M-4, 3-Isopropyl-1-(5-methyl-1H-pyrazol-3-ylamino)-4-oxo-3,4-dihydro-phthalazine-6-carboxylic acid methoxy-amide]: 1 to 100 nM.
`Cc1cc(Nc2nn(Cc3ccc(S(C)(=O)=O)cc3)c(=O)c3ccccc23)[nH]n1` [Example A-14, 2-(4-Methanesulfonyl-benzyl)-4-(5-methyl-2H-pyrazol-3-ylamino)-2H-phthalazin-1-one]: the IC50 fell in the range of 1 to 100 nM.
The same measure for `Cc1cc(Nc2nn(-c3ccc4ccccc4c3)c(=O)c3ccccc23)n[nH]1` [Example R-3, 4-(5-Methyl-1H-pyrazol-3-ylamino)-2-naphthalen-2-yl-2H-phthalazin-1-one]: 1 to 100 nM; for `Cc1cc(Nc2nn(C(C)C)c(=O)c3cc(C(=O)O)ccc23)n[nH]1` [Example M-1, 3-Isopropyl-1-(5-methyl-1H-pyrazol-3-ylamino)-4-oxo-3,4-dihydro-phthalazine-6-carboxylic acid]: 1 to 100 nM; for `Cc1cc(Nc2nn(C(C)C)c(=O)c3ccc(N(C)C)cc23)n[nH]1` [Example F-7, 2-Isopropyl-4-(5-methyl-1H-pyrazol-3-ylamino)-6-dimethylamino-2H-phthalazin-1-one]: 100 to 1000 nM.
The same measure for `Cc1cc(Nc2nn(C(C)C)c(=O)c3cc(NCCN4CCOCC4)ccc23)n[nH]1` [Example I-11, 2-Isopropyl-4-(5-methyl-1H-pyrazol-3-ylamino)-7-(2-morpholin-4-yl-ethylamino)-2H-phthalazin-1-one]: 1 to 100 nM; for `CC(=O)N(C)c1ccc2c(Nc3cc(C)[nH]n3)nn(C(C)C)c(=O)c2c1` [Example I-5, N-[3-Isopropyl-1-(5-methyl-1H-pyrazol-3-ylamino)-4-oxo-3,4-dihydro-phthalazin-6-yl]-N-methyl-acetamide]: 1 to 100 nM.
The same measure for `Cc1cc(Nc2nn(C(C)C)c(=O)c3ccccc23)n[nH]1` [Example A-23, 2-Isopropyl-4-(5-methyl-1H-pyrazol-3-ylamino)-2H-phthalazin-1-one]: 1 to 100 nM.
With `COc1ccc(Cn2nc(Nc3cc(C)[nH]n3)c3ccccc3c2=O)cc1` [Example A-11, 2-(4-Methoxy-benzyl)-4-(5-methyl-1H-pyrazol-3-ylamino)-2H-phthalazin-1-one], the IC50 was in the range of 1 to 100 nM.
The same measure for `Cc1ccc(-n2nc(Nc3cc[nH]n3)c3ccccc3c2=O)cc1` [Example A-10, 4-(1H-Pyrazol-3-ylamino)-2-p-tolyl-2H-phthalazin-1-one]: 100 to 1000 nM; for `Cc1cc(Nc2nn(-c3ccc(F)cc3)c(=O)c3ccccc23)n[nH]1` [Example A-7, 2-(4-Fluoro-phenyl)-4-(5-methyl-1H-pyrazol-3-ylamino)-2H-phthalazin-1-one]: 1 to 100 nM.
`Cc1cc(Nc2nn(Cc3cccc(C(=O)O)c3)c(=O)c3ccccc23)n[nH]1` [Example A-24, 3-[4-(5-Methyl-1H-pyrazol-3-ylamino)-1-oxo-1H-phthalazin-2-ylmethyl]-benzoic acid]: the IC50 was in the range of 1 to 100 nM.
Regarding `Cc1cc(Nc2nn(-c3ccc(-c4ccccc4C)cc3)c(=O)c3ccccc23)n[nH]1` [Example Q-2, 2-(2′-Methyl-biphenyl-4-yl)-4-(5-methyl-1H-pyrazol-3-ylamino)-2H-phthalazin-1-one], the IC50 lay within 1 to 100 nM.
`CC(=O)Nc1ccc(-n2nc(Nc3cc(C)[nH]n3)c3ccccc3c2=O)cc1` [Example T-1, N-{4-[4-(5-Methyl-1H-pyrazol-3-ylamino)-1-oxo-1H-phthalazin-2-yl]-phenyl}-acetamide]: the IC50 lay within 100 to 1000 nM.
As for `Cc1cc(Nc2nn(C(C)C)c(=O)c3cc(N(C)C)ccc23)n[nH]1` [Example F-6, 2-Isopropyl-4-(5-methyl-1H-pyrazol-3-ylamino)-7-dimethylamino-2H-phthalazin-1-one], the IC50 is 1 to 100 nM.
`Cc1cc(Nc2nn(C(C)C)c(=O)c3cc(S(C)(=O)=O)ccc23)n[nH]1` [Example H-2, 2-Isopropyl-7-methanesulfonyl-4-(5-methyl-1H-pyrazol-3-ylamino)-2H-phthalazin-1-one]: the IC50 lay in the range of 1 to 100 nM.
